# Assay results from US10870647B2, “Imidazopyridine derivative, method for preparing same, and pharmaceutical composition containing same as active ingredient for preventing or treating cancer” (DAEGU-GYEONGBUK MEDICAL INNOVATION FOUNDATION, priority 2016, dated 2020).
# pIC50: −log10 of the molar value. Read-outs that look alike come from different tables or passages of the source.
# How the values were obtained:
# Format in all cases: cell-based
# Huh7 = assay: Cancer cell proliferation inhibition, MTS assay, 72 hours; conditions: Homo sapiens, Huh-7
# Description: (§1) MTS assay was performed to evaluate the cancer cell proliferation inhibition (cancer cell apoptosis) effect of the compounds of examples of the present invention. Particularly, the assay was performed using the cancer cell lines GIST-T1, GIST-T1/816, GIST-430, GIST-430/654, GIST-R1, GIST-R3, M-NFS-60, RetParental (Ba/F3), Retwt (Ba/F3), RetV804M (Ba/F3), RET (LC2/ad-CDC6), FYN (MCP-1), FYN (FN), MDA-MB-231, Huh7, K562, T315I(Ba/F3), SK-MEL-28 and A375. Cell culture was performed using a medium suitable for each cell line.
# (§2) Other cell lines were seeded in a 96-well plate containing the corresponding medium appropriate for each cell line at the density of 3,000 cells/well, followed by culture in a 5% CO2 and 37° C. incubator for 24 hours. The compounds of examples of the present invention were added to each well at the concentration of from the highest volume of 50 μM to every step of serial dilution. The solvent control, dimethylsulfoxide (DMSO), was treated at the same concentration of 0.05% (v/v) as the volume used for the treatment of the compounds above. Each cell line was cultured for 72 hours. To investigate the cell viability, the MTS and PMS (phenazine methosulfate) mixture provided in CellTiter 96® AQuous Non-Radioactive Cell Proliferation Assay Kit (Promega) was added to each cell culture medium, followed by additional culture at 37° C. for 2 hours. Then, OD450 was measured. Based on OD of the solvent control cells not treated with any compounds of the present invention, the cell proliferation inhibition rate was calculated according to the treatment concentration of each compound. At this time, the concentration of each compound that was able to inhibit cancer cell proliferation up to 50% was determined as IC50 (uM). IC50 of each compound was determined with three data sets and calculated by using Prism softwater (version 6.01, GraphPad).
# MDA-MB-231 = assay: Real time cell proliferation, IncuCyte ZOOM, 72 hours
# T315I (Ba/F3) = target: T1, T315I (Ba/F3) (Homo sapiens, UniProt P00519, T315I, cells depend on it); assay: Cancer cell proliferation inhibition, CCK-8, 72 hours; conditions: read-out: T315I (Ba/F3) IC50
# T1 construct: fused on or other part: P11274 (Breakpoint cluster region protein)
# Description: as §1
# (§3) In the meantime, MDA-MB-231 and A375 cells were seeded in a 96well plate at the density of 2×10^3/100 μl/well, which stood for a day for attachment. The culture fluid was eliminated. After removing the culture medium, the medium was replaced with the culture medium containing the compounds of the present invention at 3-times serially diluted 9 concentrations (0.0015-10 μM) and the DMSO control, followed by incubation in a 37° C. CO2 incubator for 72 hours. On the other hand, K-562 and Ba/F3-T315I cells were seeded in a 96-well plate at the density of 1×10^4/90 μl/well. The plate containing K-562 cells was added with the culture medium containing the compounds of the present invention at 3-times serially diluted 9 concentrations (0.015-100 μM) and the DMSO control (10 μl/well). The plate containing Ba/F3-T315I cells was added with the culture medium containing the compounds of the present invention at 5-times serially diluted 9 concentrations (0.000256-100 μM) and the DMSO control (10 μl/well). The final concentration was made 0-10 μM and then the cells were cultured in a 37° C. CO2 incubator for 72 hours.
# (§4) A375, K-562 and Ba/F3-T315I cells were added with CCK-8 solution at the concentration of 10 μl/well, followed by orbital shaking for 30 seconds. Then, the cells were cultured in a 37° C. CO2 incubator for 2 hours. OD450 was measured by using a microplate reader. The OD value of the well treated with the culture medium and CCK-8 solution alone was subtracted from the OD value measured above, followed by calculation of IC50 using GraphPad Prism 6 software.
# A375 = assay: as above
# Description: as §1, §3, §4
# K562 = assay: as above
# Description: as §1, §3, §4
# RET (LC2/ad-CDC6) = assay: Cancer cell proliferation inhibition, MTS assay, 72 hours; conditions: 72 h
# Description: as §1, §2
Compound,pIC50 (Huh7),"pIC50 (MDA-MB-231; Homo sapiens, MDA-MB-231, 72 h)",GI50 (T315I (Ba/F3)) [nM],"pIC50 (A375; Homo sapiens, A-375, 72 h)","pIC50 (K562; Homo sapiens, K562, 72 h)",pIC50 (RET (LC2/ad-CDC6)),pIC50 (MDA-MB-231),pIC50 (A375),pIC50 (K562)
"Cc1ccc(C(=O)Nc2ccc3ncsc3c2)cc1C#Cc1cnc2c(Nc3cnn(C)c3)cccn12 [Example 37, N-(benzo[d]thiazol-6-yl)-4-methyl-3-((8-((1-methyl-1H-pyrazol-4-yl)amino)imidazo[1,2-a]pyridin-3-yl)ethynyl)benzamide]",5.74,< 5.00,663,< 5.00,8.70,–,–,–,–
"Cc1ccc(C(=O)Nc2ccc(CN3CCCN(C)CC3)c(C(F)(F)F)c2)cc1C#Cc1cnc2c(Nc3cnn(C(C)C)c3)cccn12 [Example 38, 3-((8-((1-isopropyl-1H-pyrazol-4-yl)amino)imidazo[1,2-a]pyridin-3-yl)ethynyl)-4-methyl-N-(4-((4-methyl-1,4-diazepin-1-yl)methyl)-3-(trifluoromethyl)phenyl)benzamide]",6.61,6.11,133,6.18,7.72,–,–,–,–
"Cc1ccc(C(=O)Nc2ccc(CN3CCCN(C)CC3)c(C(F)(F)F)c2)cc1C#Cc1cnc2c(Nc3cnn(CCCN(C)C)c3)cccn12 [Example 39, 3-((8-((1-(3-(dimethylamino)propyl)-1H-pyrazol-4-yl)amino)imidazo[1,2-a]pyridin-3-yl)ethynyl)-4-methyl-N-(4-((4-methyl-1,4-diazepin-1-yl)methyl)-3-(trifluoromethyl)phenyl)benzamide]",6.34,5.84,238,5.82,7.37,–,–,–,–
"Cc1cc(Nc2cccn3c(C#Cc4cc(C(=O)Nc5ccc(CN6CCC(N(C)C)C6)c(C(F)(F)F)c5)ccc4C)cnc23)no1 (stereo not shown) [Example 45, N-(4-((3-(dimethylamino)pyrrolidin-1-yl)methyl)-3-(trifluoromethyl)phenyl)-4-methyl-3-((8-((5-methylisoxazol-3-yl)amino)imidazo[1,2-a]pyridin-3-yl)ethynyl)benzamide]",–,6.09,145,6.14,8.70,< 8.00,–,–,–
"COCCCn1cc(Nc2cccn3c(C#Cc4cc(C(=O)Nc5ccc(CN6CCN(C)[C@@H](C)C6)c(C(F)(F)F)c5)ccc4C)cnc23)cn1 [Example 46, (S)—N-(4-((3,4-dimethylpiperazin-1-yl)methyl)-3-(trifluoromethyl)phenyl)-3-((8-((1-(3-methoxypropyl)-1H-pyrazol-4-yl)amino)imidazo[1,2-a]pyridin-3-yl)ethynyl)-4-methylbenzamide]",–,6.56,6.27,6.60,8.15,< 8.00,–,–,–
"Cc1ccc(C(=O)Nc2ccc(CN3CCN(C)[C@@H](C)C3)c(C(F)(F)F)c2)cc1C#Cc1cnc2c(Nc3cnn(C(C)C)c3)cccn12 [Example 48, (S)—N-(4-((3,4-dimethylpiperazin-1-yl)methyl)-3-(trifluoromethyl)phenyl)-3-((8-((1-isopropyl-1H-pyrazol-4-yl)amino)imidazo[1,2-a]pyridin-3-yl)ethynyl)-4-methylbenzamide]",–,6.42,86.3,6.39,> 9.00,< 8.00,–,–,–
"Cc1ccc(C(=O)Nc2ccc(CN3CCN(C)[C@@H](C)C3)c(C(F)(F)F)c2)cc1C#Cc1cnc2c(Nc3cnn(CCCN(C)C)c3)cccn12 [Example 49, (S)-3-((8-((1-(3-(dimethylamino)propyl)-1H-pyrazol-4-yl)amino)imidazo[1,2-a]pyridin-3-yl)ethynyl)-N-(4-((3,4-dimethylpiperazin-1-yl)methyl)-3-(trifluoromethyl)phenyl)-4-methylbenzamide]",–,6.29,217,5.99,8.30,< 8.00,–,–,–
"CCn1cc(Nc2cccn3c(C#Cc4cc(C(=O)Nc5ccc(CN6CC[C@@H](N(C)C)C6)c(C(F)(F)F)c5)ccc4C)cnc23)cn1 [Example 53, (R)—N-(4-((3-(dimethylamino)pyrrolidin-1-yl)methyl)-3-(trifluoromethyl)phenyl)-3-((8-((1-ethyl-1H-pyrazol-4-yl)amino)imidazo[1,2-a]pyridin-3-yl)ethynyl)-4-methylbenzamide]",–,6.49,2.67,6.55,> 9.00,< 8.00,–,–,–
"CCn1cc(Nc2cccn3c(C#Cc4cc(C(=O)Nc5ccc(CN6CC[C@H](N(C)C)C6)c(C(F)(F)F)c5)ccc4C)cnc23)cn1 [Example 54, (S)—N-(4-((3-(dimethylamino)pyrrolidin-1-yl)methyl)-3-(trifluoromethyl)phenyl)-3-((8-((1-ethyl-1H-pyrazol-4-yl)amino)imidazo[1,2-a]pyridin-3-yl)ethynyl)-4-methylbenzamide]",–,6.41,30.9,6.34,> 9.00,< 8.00,–,–,–
"CCn1cc(Nc2cccn3c(C#Cc4cc(C(=O)Nc5ccc(N6CCOCC6)c(F)c5)ccc4C)cnc23)cn1 [Example 56, 3-((8-((1-ethyl-1H-pyrazol-4-yl)amino)imidazo[1,2-a]pyridin-3-yl)ethynyl)-N-(3-fluoro-4-morpholinophenyl)-4-methylbenzamide]",–,< 5.00,1140,< 5.00,> 9.00,< 8.00,–,–,–
COCCCn1cc(Nc2cccn3c(C#Cc4cc(C(=O)Nc5ccc(CN6CCN(C)CC6)c(C(F)(F)F)c5)ccc4C)cnc23)cn1 [Example 65],7.48,6.66,–,6.66,> 8.82,< 8.00,–,–,–
COCCn1cc(Nc2cccn3c(C#Cc4cc(C(=O)Nc5cc(-n6cnc(C)c6)cc(C(F)(F)F)c5)ccc4C)cnc23)cn1 [Example 71],6.02,5.33,25.2,–,8.22,–,–,–,–
CCN1CCN(Cc2ccc(NC(=O)c3ccc(C)c(C#Cc4cnc5c(Nc6cnn(CCN(C)C)c6)cccn45)c3)cc2C(F)(F)F)CC1 [Example 73],–,6.04,421,–,> 8.82,–,–,–,–
Cc1ccc(NC(=O)C2(C(=O)Nc3ccc(F)cc3)CC2)cc1C#Cc1cnc2c(Nc3cnn(C)c3)cccn12 [Example 79],5.25,< 5.00,5410,< 5.00,6.12,–,–,–,–
"Cc1ccc(C(=O)Nc2ccc(CN3CCN(C)[C@H](C)C3)c(C(F)(F)F)c2)cc1C#Cc1cnc2c(Nc3cnn(C(C)C)c3)cccn12 [Example 81, (R)—N-(4-((3,4-dimethylpiperazin-1-yl)methyl)-3-(trifluoromethyl)phenyl)-3-((8-((1-isopropyl-1H-pyrazol-4-yl)amino)imidazo[1,2-a]pyridin-3-yl)ethynyl)-4-methylbenzamide]",–,–,190,–,–,–,5.76,5.71,7.37
"Cc1ccc(NC(=O)Nc2cc(C(C)(C)C(F)(F)F)on2)cc1C#Cc1cnc2c(Nc3cnn(C(C)C)c3)cccn12 [Example 85, 1-(3-((8-((1-isopropyl-1H-pyrazol-4-yl)amino)imidazo[1,2-a]pyridin-3-yl)ethynyl)-4-methylphenyl)-3-(5-(1,1,1-trifluoro-2-methylpropan-2-yl)isoxazol-3-yl)urea]",–,< 5.00,3080,< 5.00,6.54,< 8.00,–,–,–
